One block for each molecule: values may come before it. Where a SMILES comes first, the peptide text is derived from it.
Tests used:
[1] = Relative lipid binding affinity by surface balance technique (monolayer exclusion pressure); format: physicochemical; details: surface balance technique
Text: Relative Lipid Binding Affinity, Hydrophobicity, and Amphiphilicity of Synthetic Peptides—In some experiments, the relative lipid binding affinity of unique peptides was quantified using a surface balance technique (Gillotte, K L. et al., J. Biol. Chem., 274:2021-2028 (1999)). For routine analyses, a turbid solution of dimyristoylphosphatidylcholine (DMPC) was used to assess the relative capacity of synthetic peptides to solubilize phospholipid as described (Palgunachari, M. N. et al., Arterioscler. Thromb. Vasc. Biol., 16:328-338 (1996); McLean, L. R. and Hagaman, K. A., Biochim. Biophys. Acta, 1167:289-295 (1993)). The DMPC was used at a final concentration of 0.08 mg/ml in 10 mM Tris-saline (pH 7.4). The final weight ratio of peptides relative to DMPC was 1:1. The absorbance (400 nm) of samples was monitored continuously over a period of 30 min at 25° C. Hydrophobicity of helical peptides was calculated using the consensus scale (Eisenberg D., Annu. Rev. Biochem., 53:593-623 (1984)). The hydrophobic moment (kcal/mol) of synthetic peptides, which is a measure of helix amphiphilicity, was calculated as described by Eisenberg et al. (Eisenberg, D. et al., Nature, 299:371-374 (1982)).

ABCA1 [2] = molecular target: T1, ABCA1 (Mus musculus, UniProt P41233); assay: Cellular cholesterol efflux from [3H]cholesterol-labeled J774 macrophages with and without cAMP analog; format: cell-based; design: endogenous in cells; host or cells: J774 macrophages treated with a cAMP analog (CPT-cAMP or 8-bromo-cAMP); details: lipid-free acceptor, J774 macrophages with vs without cAMP analog
Text: Suitable cholesterol efflux assays are described in, e.g., Bielicki, J. K and Oda, M. N., Biochemistry, 41:2089-2096 (2002); Jia, Z. et al., Biochem. Biophys. Res. Common., 297:206-213 (2002). In some embodiments, a polypeptide known to mediate cholesterol efflux (e.g., helix 9/10 of Apo A-I) is used to screen for additional mediators of cholesterol efflux in a cell based assay. For example, cell lines in which cholesterol efflux can be enhanced using a cAMP analog that up-regulates ABCA1 protein expression (e.g., J774 macrophages) can conveniently be used to assess the ability of an Apo A-I, Apo A-II, Apo A-IV, Apo E, Apo C-I, Apo C-II, Apo C-III, or Serum Amyloid A peptide to mediate cholesterol efflux. The cells are incubated with labeled cholesterol (e.g., [^3H]cholesterol) under conditions appropriate for cholesterol uptake by the cells. cAMP or cAMP analogs (e.g., CPT-cAMP) is incubated with the cells for a suitable time before the initiation of cellular cholesterol efflux, i.e., prior to contacting the cells with helix 9/10 of Apo A-I or the test compound. Measurement of labeled cholesterol appearing in the medium is used to determine the cholesterol efflux mediating activity of the test compound.
Cellular Cholesterol Efflux Protocol—J774 macrophages were used to assess the cholesterol efflux properties of synthetic amphipathic α-helical peptides (Bielicki, J. K and Oda, M. N., Biochemistry, 41:2089-2096 (2002); Jia, Z. et al., Biochem. Biophys. Res. Common., 297:206-213 (2002)). This cell line was chosen because cholesterol efflux can be enhanced using a cAMP analog that up-regulates ABCA1 protein expression. The cells were seeded onto 24-well culture plates and labeled for 48 h with [^3H]cholesterol in RPMI 1640 supplemented with 1% fetal bovine serum. The cAMP analog CPT-cAMP was added (0.3 mM, final concentration) to the cells at least 12 h before the initiation of cellular cholesterol efflux. Synthetic peptides in lipid-free form were added to cells in serum-free RPMI. The lipid-free form of full-length recombinant apoA-I was used as a positive control to define apparent ABCA1-dependent cholesterol efflux in the presence and absence of cAMP stimulation. Efflux results were expressed as a percentage of the initial cellular [^3H] appearing in the medium as a function of time subtracting the background efflux obtained using serum-free medium alone.

ABCA1 [3] = molecular target: T1, ABCA1; assay: ABCA1 stabilization: immunoblot of ABCA1 protein in J774 macrophage membranes after cAMP withdrawal; format: cell-based; design: J774 macrophages were used to assess relative ABCA1 protein levels in the presence and absence of synthetic peptides; endogenous in cells; host or cells: J774 macrophages treated with a cAMP analog (CPT-cAMP or 8-bromo-cAMP); details: 20 μg/ml peptide, 6 h without cAMP, J774 macrophages
Procedure: J774 macrophages were incubated (18 h) with 0.5 mM 8-bromo-cAMP in medium containing 0.1% bovine serum albumin to up-regulate ABCA1 protein expression. Washed cells were subsequently exposed for 6 h to bovine serum albumin medium with (+) or without (−) 8-bromo-cAMP and the indicated synthetic peptides (20 μg/ml). None refers to no peptides. The cellular membrane content of ABCA1 protein was measured by immunoblot analysis.
ABCA1 Stabilization—J774 macrophages were used to assess relative ABCA1 protein levels in the presence and absence of synthetic peptides. Cells were grown in 10% fetal bovine serum, extensively rinsed, and incubated (18 h) with Dulbecco's modified Eagle's medium containing 0.1% bovine serum albumin plus the cAMP analog 8-bromo-cAMP. Cells were next exposed to synthetic peptides or serum-free medium in the absence of the cAMP stimulus to evaluate whether ABCA1 protein was stabilized or degraded. Relative levels of ABCA1 protein were assessed by immunoblot analysis of cell membranes (Oram, J. F. et al., J. Biol. Chem., 278:52379-52385 (2003)). ABCA1 was visualized using an enhanced chemiluminescence detection assay.
To assess ABCA1 stabilization, J774 macrophages were treated with a cAMP analog to up-regulate ABCA1 protein expression and then incubated for 6 h without cAMP. In the absence of inducer, ABCA1 protein is rapidly degraded in these cells (FIG. 9). […] Thus, it appears that the helical combinations that stimulate cholesterol efflux also stabilize the ABCA1 transporter.

T1 sequence (P41233 whole entry): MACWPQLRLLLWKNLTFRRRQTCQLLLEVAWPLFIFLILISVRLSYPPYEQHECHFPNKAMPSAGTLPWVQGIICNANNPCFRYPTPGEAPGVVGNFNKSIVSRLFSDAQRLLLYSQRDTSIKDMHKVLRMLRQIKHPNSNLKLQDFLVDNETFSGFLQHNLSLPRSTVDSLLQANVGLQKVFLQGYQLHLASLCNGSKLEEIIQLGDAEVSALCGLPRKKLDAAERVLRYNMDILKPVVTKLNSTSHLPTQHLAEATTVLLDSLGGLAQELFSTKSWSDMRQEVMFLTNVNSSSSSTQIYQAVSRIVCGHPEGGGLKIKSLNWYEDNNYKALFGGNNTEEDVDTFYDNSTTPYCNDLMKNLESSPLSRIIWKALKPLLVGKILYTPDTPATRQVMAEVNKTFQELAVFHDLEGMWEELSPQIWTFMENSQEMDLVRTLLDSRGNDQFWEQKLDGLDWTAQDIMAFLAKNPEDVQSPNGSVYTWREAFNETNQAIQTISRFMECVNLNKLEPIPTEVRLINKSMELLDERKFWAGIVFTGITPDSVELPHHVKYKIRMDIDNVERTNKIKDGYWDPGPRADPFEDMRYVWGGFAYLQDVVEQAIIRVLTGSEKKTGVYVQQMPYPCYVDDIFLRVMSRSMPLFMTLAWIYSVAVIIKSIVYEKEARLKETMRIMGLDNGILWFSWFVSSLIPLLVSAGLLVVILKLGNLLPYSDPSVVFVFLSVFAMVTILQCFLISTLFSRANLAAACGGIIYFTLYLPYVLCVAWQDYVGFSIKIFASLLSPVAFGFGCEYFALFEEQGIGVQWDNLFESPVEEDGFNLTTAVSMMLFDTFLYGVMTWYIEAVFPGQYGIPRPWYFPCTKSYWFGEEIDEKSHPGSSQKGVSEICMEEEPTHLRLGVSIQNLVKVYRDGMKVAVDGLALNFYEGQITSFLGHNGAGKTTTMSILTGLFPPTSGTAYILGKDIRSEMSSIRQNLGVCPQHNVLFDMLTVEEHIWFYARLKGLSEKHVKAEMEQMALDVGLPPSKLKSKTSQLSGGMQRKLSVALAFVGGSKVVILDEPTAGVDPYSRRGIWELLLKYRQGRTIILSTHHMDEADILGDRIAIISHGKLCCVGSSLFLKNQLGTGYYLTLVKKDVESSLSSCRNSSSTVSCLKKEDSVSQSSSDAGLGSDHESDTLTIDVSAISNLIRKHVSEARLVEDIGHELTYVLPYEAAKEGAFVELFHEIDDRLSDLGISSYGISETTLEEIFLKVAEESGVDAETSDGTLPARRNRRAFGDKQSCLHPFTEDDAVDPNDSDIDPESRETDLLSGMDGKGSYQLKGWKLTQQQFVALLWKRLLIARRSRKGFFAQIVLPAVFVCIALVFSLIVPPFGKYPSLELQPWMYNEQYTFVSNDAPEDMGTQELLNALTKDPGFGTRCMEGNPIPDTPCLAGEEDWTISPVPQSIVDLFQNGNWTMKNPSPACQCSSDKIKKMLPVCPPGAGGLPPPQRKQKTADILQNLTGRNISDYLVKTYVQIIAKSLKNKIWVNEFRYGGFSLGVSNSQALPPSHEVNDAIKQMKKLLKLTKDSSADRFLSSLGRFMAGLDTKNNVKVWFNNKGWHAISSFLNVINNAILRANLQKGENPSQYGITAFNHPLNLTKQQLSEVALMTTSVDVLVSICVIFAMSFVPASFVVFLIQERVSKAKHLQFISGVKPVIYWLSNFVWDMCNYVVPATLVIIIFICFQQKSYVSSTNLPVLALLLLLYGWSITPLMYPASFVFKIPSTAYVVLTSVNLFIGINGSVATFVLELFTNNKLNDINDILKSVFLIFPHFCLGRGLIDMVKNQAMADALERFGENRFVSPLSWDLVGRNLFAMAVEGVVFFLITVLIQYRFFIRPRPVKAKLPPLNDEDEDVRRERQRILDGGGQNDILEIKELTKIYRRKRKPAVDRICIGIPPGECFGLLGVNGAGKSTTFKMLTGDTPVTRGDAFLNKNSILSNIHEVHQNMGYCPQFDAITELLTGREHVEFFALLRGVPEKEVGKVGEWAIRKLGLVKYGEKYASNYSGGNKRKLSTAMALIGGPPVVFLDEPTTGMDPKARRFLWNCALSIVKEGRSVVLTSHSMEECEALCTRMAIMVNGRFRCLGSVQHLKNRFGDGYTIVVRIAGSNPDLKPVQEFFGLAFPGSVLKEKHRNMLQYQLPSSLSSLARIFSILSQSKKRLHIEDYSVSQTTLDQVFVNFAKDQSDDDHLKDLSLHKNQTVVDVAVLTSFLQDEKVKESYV

Molecule: CSCC[C@H](NC(=O)[C@H](CCC(=O)O)NC(=O)[C@H](CCC(N)=O)NC(=O)[C@H](CCCNC(=N)N)NC(=O)[C@H](CC(C)C)NC(=O)CNC(=O)[C@H](CCC(=O)O)NC(=O)[C@@H](NC(=O)[C@H](CCC(=O)O)NC(=O)[C@H](CCCCN)NC(=O)[C@H](CCC(=O)O)NC(=O)[C@H](CC(C)C)NC(=O)[C@H](CC(N)=O)NC(=O)[C@H](CC(=O)O)NC(=O)[C@H](Cc1c[nH]c2ccccc12)NC(=O)[C@H](Cc1ccccc1)NC(=O)[C@H](CCC(=O)O)NC(=O)[C@H](CCC(N)=O)NC(=O)[C@@H](NC(=O)[C@@H](NC(=O)[C@@H]1CCCN1C(C)=O)C(C)C)[C@@H](C)O)[C@@H](C)O)C(=O)N[C@@H](CO)C(=O)N1CCC[C@H]1C(=O)N[C@@H](C)C(=O)N[C@@H](CC(C)C)C(=O)N[C@@H](CCC(=O)O)C(=O)N[C@@H](CC(=O)O)C(=O)N[C@@H](CC(C)C)C(=O)N[C@@H](CCCNC(=N)N)C(=O)N[C@@H](CCC(N)=O)C(=O)NCC(=O)N[C@@H](CC(C)C)C(=O)N[C@@H](CC(C)C)C(N)=O [Helical peptide 2/9] (Ac-PVTQEFWDNLEKETEGLRQEMSPALEDLRQGLL-NH2)
Monolayer exclusion pressure [1]: 19 dynes/cm | ABCA1-dependent cholesterol efflux (result in words) (ABCA1 [2]): failed to stimulate ABCA1-dependent cholesterol efflux

Molecule: CC(=O)N1CCC[C@H]1C(=O)N[C@H](C(=O)N[C@@H](CC(C)C)C(=O)N[C@@H](CCC(=O)O)C(=O)N[C@@H](CO)C(=O)N[C@@H](Cc1ccccc1)C(=O)N[C@@H](CCCCN)C(=O)N[C@H](C(=O)N[C@@H](CO)C(=O)N[C@@H](Cc1ccccc1)C(=O)N[C@@H](CC(C)C)C(=O)N[C@@H](CO)C(=O)N[C@@H](C)C(=O)N[C@@H](CC(C)C)C(=O)N[C@@H](CCC(=O)O)C(=O)N[C@@H](CCC(=O)O)C(=O)N[C@@H](Cc1ccc(O)cc1)C(=O)N[C@H](C(=O)N[C@@H](CCCCN)C(=O)N[C@@H](CCCCN)C(=O)N[C@@H](CC(C)C)C(=O)N[C@@H](CC(N)=O)C(=O)N1CCC[C@H]1C(=O)N[C@@H](C)C(=O)N[C@@H](CC(C)C)C(=O)N[C@@H](CCC(=O)O)C(=O)N[C@@H](CC(=O)O)C(=O)N[C@@H](CC(C)C)C(=O)N[C@@H](CCCNC(=N)N)C(=O)N[C@@H](CCC(N)=O)C(=O)NCC(=O)N[C@@H](CC(C)C)C(=O)N[C@@H](CC(C)C)C(N)=O)[C@@H](C)O)C(C)C)C(C)C [Helical peptide 10/9] (Ac-PVLESFKVSFLSALEEYTKKLNPALEDLRQGLL-NH2)
ABCA1-dependent cholesterol efflux (result in words) (ABCA1 [2]): failed to stimulate ABCA1-dependent cholesterol efflux | ABCA1 stabilization (result in words) (ABCA1 [3]): failed to prevent ABCA1 degradation

Molecule: CC(=O)N1CCC[C@H]1C(=O)N[C@@H](C)C(=O)N[C@@H](CC(C)C)C(=O)N[C@@H](CCC(=O)O)C(=O)N[C@@H](CC(=O)O)C(=O)N[C@@H](CC(C)C)C(=O)N[C@@H](CCCNC(=N)N)C(=O)N[C@@H](CCC(N)=O)C(=O)NCC(=O)N[C@@H](CC(C)C)C(=O)N[C@@H](CC(C)C)C(N)=O [Helical peptide 9] (Ac-PALEDLRQGLL-NH2)
ABCA1-dependent cholesterol efflux (result in words) (ABCA1 [2]): failed to stimulate ABCA1-dependent cholesterol efflux | ABCA1 stabilization (result in words) (ABCA1 [3]): failed to prevent ABCA1 degradation

Molecule: CSCC[C@H](NC(=O)[C@H](CCC(=O)O)NC(=O)[C@H](CCC(N)=O)NC(=O)[C@H](CCCNC(=N)N)NC(=O)[C@H](CC(C)C)NC(=O)CNC(=O)[C@H](CCC(=O)O)NC(=O)[C@@H](NC(=O)[C@H](CCC(=O)O)NC(=O)[C@H](CCCCN)NC(=O)[C@H](CCC(=O)O)NC(=O)[C@H](CC(C)C)NC(=O)[C@H](CC(N)=O)NC(=O)[C@H](CC(=O)O)NC(=O)[C@H](Cc1c[nH]c2ccccc12)NC(=O)[C@H](Cc1ccccc1)NC(=O)[C@H](CCC(=O)O)NC(=O)[C@H](CCC(N)=O)NC(=O)[C@@H](NC(=O)[C@@H](NC(=O)[C@@H]1CCCN1C(C)=O)C(C)C)[C@@H](C)O)[C@@H](C)O)C(=O)N[C@@H](CO)C(N)=O [Helical peptide 2] (Ac-PVTQEFWDNLEKETEGLRQEMS-NH2)
Monolayer exclusion pressure [1]: 17 dynes/cm

Molecule: CSCC[C@H](NC(=O)[C@H](CCC(=O)O)NC(=O)[C@H](CCC(=O)O)NC(=O)[C@H](CCC(N)=O)NC(=O)[C@H](Cc1c[nH]c2ccccc12)NC(=O)[C@H](CCCCN)NC(=O)[C@H](CCCCN)NC(=O)[C@H](CCC(N)=O)NC(=O)[C@H](Cc1ccccc1)NC(=O)[C@H](CC(=O)O)NC(=O)[C@H](CC(=O)O)NC(=O)[C@H](CC(C)C)NC(=O)[C@H](Cc1ccc(O)cc1)NC(=O)[C@@H]1CCCN1C(C)=O)C(=O)N[C@@H](CCC(=O)O)C(=O)N[C@@H](CC(C)C)C(=O)N[C@@H](Cc1ccc(O)cc1)C(=O)N[C@@H](CCCNC(=N)N)C(=O)N[C@@H](CCC(N)=O)C(=O)N[C@@H](CCCCN)C(=O)N[C@H](C(=O)N[C@@H](CCC(=O)O)C(=O)N1CCC[C@H]1C(=O)N[C@@H](C)C(=O)N[C@@H](CC(C)C)C(=O)N[C@@H](CCC(=O)O)C(=O)N[C@@H](CC(=O)O)C(=O)N[C@@H](CC(C)C)C(=O)N[C@@H](CCCNC(=N)N)C(=O)N[C@@H](CCC(N)=O)C(=O)NCC(=O)N[C@@H](CC(C)C)C(=O)N[C@@H](CC(C)C)C(N)=O)C(C)C [Helical peptide 4/9] (Ac-PYLDDFQKKWQEEMELYRQKVEPALEDLRQGLL-NH2)
ABCA1-dependent cholesterol efflux (result in words) (ABCA1 [2]): failed to mediate ABCA1-dependent cholesterol efflux

ABCA1-dependent cholesterol efflux (result in words) (ABCA1 [2]; listed as C-terminal domain of apoE): potent stimulator of cholesterol efflux | ABCA1-dependent cholesterol efflux (result in words) (ABCA1 [2]; listed as CT domain): more effective than full-length apoE3
B1: ARMEEMGSRTRDRLDEVKEQVAEVRAKLEEQAQQIRLQAEAFQARLKSWFEPLVEDMQRQWAGLVEKVQAAVGTSAAPVPSDNH (protein)
chain: ARMEEMGSRTRDRLDEVKEQVAEVRAKLEEQAQQIRLQAEAFQARLKSWFEPLVEDMQRQWAGLVEKVQAAVGTSAAPVPSDNH
modifications: apolipoprotein Apo E, C-terminal domain (aa216-299)
notes: C-terminal domain, amino acid residues 216-299 of Apo E

From patent US7691965B2, “Helical synthetic peptides that stimulate cellular cholesterol efflux” (The Regents of the University of California, priority 2002, dated 2010)
